Measured values from patent publication US12569495B2, “Inhibitors of porcine reproductive and respiratory syndrome virus” (UNIVERSITY OF CONNECTICUT, priority 2020, dated 2026).
“Also recorded” adds a separate entry of the source.

Legend:
[1] = target: T1, protein-protein interactions (PPI) between CD163-SRCR5 domain and PRRSV GP2a protein (Sus scrofa, UniProt Q2VL90); assay: BiFC assay between SRCR5-VN and GP2a-VC proteins; type: cell-based, porcine CD163; PRRSV; settings: HEK293T cells; compounds at 5 μM; 24 h; DMSO as Ctrl
T1 construct: The amplified cDNA fragments of SRCR2 or SRCR5 were subcloned into the pBiFC-VN155(I152L) vector; Myc tag (from vector backbone pMyc-CMV); expressed in transfected cells; host or cells: HEK293T
From the text: (§1) The N-terminus and C-terminus of the truncated Venus-I152L were inserted into vector backbone pMyc-CMV and pCMV-HA, constituting commercial plasmids pBiFC-VN155(I152L) and pBiFC-VC155, respectively (Addgene, Watertown, MA, USA). See Kodama and Hu, Biotechniques 49:793-805 (2010). cDNA fragments for the scavenger receptor cysteine-rich domain 2 (SRCR2) and SRCR5 of porcine CD163 receptor, and for PRRSV glycoproteins GP2a and GP4 were amplified by RT-PCR. The amplified cDNA fragments of SRCR2 or SRCR5 were subcloned into the pBiFC-VN155(I152L) vector digested with EcoRI/BglII. For constructions of GP2a and GP4 fusion proteins, cDNA fragments encoding GP2a or GP4 were subcloned into the pBiFC-VC155 vector digested with EcoRI/BglII. All plasmid clones were verified by DNA Sanger sequencing.
(§2) HEK293T cells cultured in 12-well plates were transfected with appropriate plasmids for each BiFC assay using FuGENE® 6 (Promega, Madison, WI, USA). After 5 h, various concentrations of chemical compounds were added to the culture media. DMSO was used as the vehicle control. Fluorescence images of treated cells at 24 h after plasmid transfection were captured using an inverted Nikon fluorescence microscope. Fluorescence intensity of treated cells was measured by ImageJ.
Using the previously described BiFC vector based on the fragmented venus protein (VN-155[I152L], hereafter named VN) and (VC-155, hereafter named VC), fusion protein constructs were established between the porcine CD163 protein SRCR5 or SRCR2 domain and VN, and between the PRRSV minor glycoproteins (GP2a or GP4) and VC (FIG. 1A, 2). See Kodama et al., Biotechniques 49(5): 793-805 (2010). These plasmids were co-expressed in HEK293T cells to evaluate the PPIs between the SRCR5 domain and GP2a or GP4.
The BiFC assays was tested to determine whether it could identify small molecules with potential to block the protein-protein interactions between CD163 and PRRSV. A customized virtual screen of a library of commercially available small molecules was performed with the AtomNet® model at a region centered around R561 (FIG. 3) based on the available 3-D protein structure of porcine CD163-SRCR5 domain, and 74 compounds predicted to target this potential binding site were procured. Ma et al., J. Virol. 91(3): e01897-16 (2017). These compounds were tested using the BiFC assay, to evaluate their ability to inhibit the PPI between GP2a and SRCR5. Plasmids were co-transfected in HEK293T cells, 4 h later, compounds were individually administered to cells at 5 μM. Twenty-four hours later, images were taken under a fluorescence microscope and the fluorescence quantified. […] Until these studies, there has been no known biological activity reported for compound B7.

[2] = target: T2, PPI between PRRSV GP4 glycoprotein and CD163-SRCR5 domain (Sus scrofa, UniProt Q2VL90); assay: BiFC assay between SRCR5-VN and GP4-VC proteins; type: cell-based, porcine CD163; PRRSV; settings: HEK293T cells; DMSO as Ctrl
T2 construct: The amplified cDNA fragments of SRCR2 or SRCR5 were subcloned into the pBiFC-VN155(I152L) vector; Myc tag (from vector backbone pMyc-CMV); expressed in transfected cells; host or cells: HEK293T
From the text: as §1, with “All plasmid clones were verified by DNA Sanger sequencing.” left out
as §2, with “After 5 h, various concentrations of chemical compounds were added to the culture media. DMSO was used as the vehicle control.” left out, “ImageJ. […]” for “ImageJ.”
The BiFC assays was tested to determine whether it could identify small molecules with potential to block the protein-protein interactions between CD163 and PRRSV. […] Twenty-four hours later, images were taken under a fluorescence microscope and the fluorescence quantified. […]

PRRSV strain VR-2332 = assay: PRRSV titration assay of culture media of infected PAMs; type: cell-based; settings: for log reduction of viral titer: pre- and post-inoculation treatment
Method: For PRRSV infection of PAM cells, PAMs were seeded one day prior to infection. […] Cells were inoculated with VR-2332, SDSU73, NADC30 or Lelystad PRRSV at MOI=0.1 for 1 h. The 24 h cell medium supernatant was stored at −80° C. until use.
(§3) For PRRSV titration assay, MARC145 cells were seeded in 48-well plates and grew to ˜80% density before inoculation. Viral supernatants were prepared by 10-fold serial dilution, and 100 μl of the dilutions was added per well in six replicates. Inocula were removed from cells after 2 h and replaced with 0.5 mL of DMEM supplemented with 2% FBS, 2 mM glutamine, 0.1 mM MEM non-essential amino acids, 50 U/mL penicillin, and 50 μg/mL streptomycin (Invitrogen). Cells were cultured at 37° C. for 6 days and any cytopathic effects were observed and recorded. The PRRSV titer was calculated using the Reed and Muench method and expressed as median tissue culture infectious dose (TCID50/mL). Reed and Muench, Am. J. Epidemiol. 27(3): 493-497 (1938).

[3] = system: 3 Type II PRRSV strains (VR-2332, SDSU73, NADC30); assay: PRRSV titration assay, Type II strains; type: cell-based; settings: 15 μM; PAMs; 24 h
Method: (§4) For PRRSV infection of PAM cells, PAMs were seeded one day prior to infection. Control cells were treated with DMSO and test cells were treated with the selected screening compounds (5-20 μM) for 4 h before inoculation, during the 1 h PRRSV inoculation, and for 24 h after inoculation. Cells were inoculated with VR-2332, SDSU73, NADC30 or Lelystad PRRSV at MOI=0.1 for 1 h. The 24 h cell medium supernatant was stored at −80° C. until use.
as §3
(§5) The inhibitory effect of B7 was further tested on multiple strains of PRRSV. […]

type I strain (Lelystad) = assay: PRRSV titration assay, type I strain; type: cell-based; settings: 15 μM; PAMs; 24 h
Method: as §4, §3, §5

T1 sequence (Q2VL90 477-577): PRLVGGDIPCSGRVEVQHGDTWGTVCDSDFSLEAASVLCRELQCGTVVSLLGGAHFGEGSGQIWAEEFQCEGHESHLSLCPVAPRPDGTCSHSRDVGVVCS
T2 sequence (Q2VL90 477-577): as above

`Cc1cc(F)ccc1S(=O)(=O)Nc1nc2ccccc2nc1Nc1cccc(S(=O)(=O)N2CCOCC2)c1` [Compound B7, 4-fluoro-2-methyl-N-[3-(3-morpholin-4-ylsulfonylanilino)quinoxalin-2-yl]benzenesulfonamide] was tested, and the “inhibition of PPI between GP2a and SRCR5 (venus fluorescence in BiFC assay)” value [1] was “significantly inhibited the reconstitution of venus fluorescence; also recorded: positive inhibitory effect; also recorded: significantly inhibits the interaction”, the “inhibition of PPI between PRRSV GP4 glycoprotein and CD163-SRCR5 domain (BiFC)” value [2] was “also inhibited the PPI; also recorded: significantly inhibits the interaction” and the “log reduction of viral titer” value (PRRSV strain VR-2332; 10 μM, 24 h) was 1.7 log. The “log reduction of PRRSV titer, post-inoculation treatment alone” value (PRRSV strain VR-2332; 15 μM, 24 h) was 2.8 log, the “log reduction of viral titer” value (PRRSV strain VR-2332; 15 μM, 24 h) was 2.9 log and the “inhibition of PRRSV infection of PAMs (titration of culture media)” value (PRRSV strain VR-2332; 10-20 μM B7, 24 h) was “inhibited PRRSV infection of PAMs effectively”. The “log reduction of viral titers across the 3 Type II PRRSV strains” value [3] was 2.8-3.1 log and the “log reduction of viral titer for the type I strain (Lelystad)” value (type I strain (Lelystad)) was 2.2 log.
